From patent US20070026071A1, “Magnesium salt proton pump inhibitor dosage forms” (QPharma, LLC, priority 2005, published 2007)
Where two headings read alike, the source gives them in different places.

How the values were obtained:
[1] = Phase solubility study in pH 6.8 buffer (simulated intestinal fluid) and purified water; format: physicochemical; conditions: for Solubility: Active content equivalent to base in pH 6.8 buffer / Solubility: Active content equivalent to base in purified water: ambient temperature (approx. 22° C.), shaken approx. 30 minutes
Protocol: In this study the solubility of Omeprazole Magnesium Trihydrate and Esomeprazole Magnesium Dihydrate active materials in pH 6.8 buffer and purified water was performed. […] A pH 6.8 buffer is prepared as described under the monograph of Omeprazole Delayed Release capsules for dissolution test in United States Pharmacopoeia. Purified water and pH 6.8 buffer were used at ambient temperature (approx. 22° C.).
Samples of actives and tablet dosage form powders were used in the study. Each sample contains approx. 200 mg base equivalent Omeprazole and Esomeprazole as salts and such samples were transferred in to a centrifuge tube containing 20 mL of appropriate medium. Centrifuge tubes containing these suspensions were shaken for approx. 30 minutes on a wrist action shaker and samples were initially filtered through Whatman filter paper and subsequently filtered through 0.45 micron PTFE cartridge filters. The samples were further diluted by pipetting 1.0 mL in to 100 mL volumetric flasks and made up to the volume with appropriate medium. The optical density values were measured using a suitable UV-Visible spectrophotometer at 275 nm wavelength.

[2] = from commercially marketed dosage forms; cited from earlier work
[3] = 25° C., cited from earlier work

Row | Compound | Solubility: Active content equivalent to base in pH 6.8 buffer [1] [mg/mL] | fold increased solubility by the fluid bed process as compared to the active when tested alone ([1]; purified water) | Solubility: Active content equivalent to base in purified water ([1]; purified water) [µg/mL] | percent bioavailability [2] | also measured
1 | COc1ccc2[n-]c([S@@+]([O-])Cc3ncc(C)c(OC)c3C)nc2c1.COc1ccc2[n-]c([S@@+]([O-])Cc3ncc(C)c(OC)c3C)nc2c1.O.O.[Mg+2] [Esomeprazole Magnesium Dihydrate] | 1.17 | approx. 1.6 fold | 5020 |  | 
2 | Cc1c(OCC(F)(F)F)ccnc1C[S+]([O-])c1nc2ccccc2[nH]1 (stereo not shown) [Lansoprazole, 2-[[[3-methyl-4-(2,2,2-trifluroethoxy)-2-pyridyl]methyl]sulfinyl]benzimidazole] |  |  |  | 80-85% | degradation half-life in aqueous solution ([3]; pH 5.0): approximately 0.5 hour; degradation half-life in aqueous solution ([3]; pH 7.0): approximately 18 hours
3 | COc1ccc2[n-]c([S+]([O-])Cc3ncc(C)c(OC)c3C)nc2c1.COc1ccc2[n-]c([S+]([O-])Cc3ncc(C)c(OC)c3C)nc2c1.O.O.O.[Mg+2] (stereo not shown) [Omeprazole Magnesium Trihydrate] | 0.31 | approx. 10 fold | 260 |  | fold increased solubility by the fluid bed process as compared to the active when tested alone ([1]; pH 6.8 buffer (simulated intestinal fluid)): 4 fold
4 | COc1ccnc(C[S+]([O-])c2nc3ccc(OC(F)F)cc3[nH]2)c1OC (stereo not shown) [Pantoprazole] |  |  |  | 77% | 
5 | COCCCOc1ccnc(C[S+]([O-])c2nc3ccccc3[nH]2)c1C (stereo not shown) [Rabeprazole] |  |  |  | 52% | 
6 | COc1ccc2[nH]c([S+]([O-])Cc3ncc(C)c(OC)c3C)nc2c1 (stereo not shown) [omeprazole, 2-[2-(3,5-dimethyl-4-methoxy)-pyridylmethylsulfinyl]-(5-methoxy)-benzimidazole] |  |  |  | 30-40% | 
